Consider eleven compounds from ChEMBL document CHEMBL4368927, “A review on flavones targeting serine/threonine protein kinases for potential anticancer drugs” (Bioorg Med Chem, 2019).

Test [1] has as its target Protein kinase C (PKC) (Rattus norvegicus) (UniProt P05696+P68403+P09216+P63319+P09215+Q64617+Q9WTQ0+P09217). Kind of test: Inhibition of PKC in rat brain homogenate at 50 uM using FKKSFKL-NH2 as substrate preincubated for 10 mins followed by substrate addition and measured after 5 mins in presence of [gamma-32P]ATP by liquid scintillation counting analysis relative to control. The test is classed as tissue-based.

The target in test [2] is Serine/threonine-protein kinase pim-1 (Homo sapiens) (UniProt P11309).
Chain of Serine/threonine-protein kinase pim-1 (Homo sapiens) (P11309 whole entry, looked up): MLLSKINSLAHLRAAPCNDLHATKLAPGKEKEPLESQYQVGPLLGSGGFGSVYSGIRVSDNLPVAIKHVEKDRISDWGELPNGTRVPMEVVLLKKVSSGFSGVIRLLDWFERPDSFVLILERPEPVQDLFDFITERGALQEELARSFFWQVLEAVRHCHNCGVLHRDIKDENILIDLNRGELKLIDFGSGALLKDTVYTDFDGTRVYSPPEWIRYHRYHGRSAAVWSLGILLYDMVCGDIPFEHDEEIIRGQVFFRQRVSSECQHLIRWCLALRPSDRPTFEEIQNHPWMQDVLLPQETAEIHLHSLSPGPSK
Description: Inhibition of PIM1 in human RWPE2 cells assessed as inhibition of cell growth
The target in test [3] is Cyclin-dependent kinase 1 (Homo sapiens, UniProt P06493). The experiment in a line: Inhibition of human CDK1.
Chain of Cyclin-dependent kinase 1 (P06493 whole entry): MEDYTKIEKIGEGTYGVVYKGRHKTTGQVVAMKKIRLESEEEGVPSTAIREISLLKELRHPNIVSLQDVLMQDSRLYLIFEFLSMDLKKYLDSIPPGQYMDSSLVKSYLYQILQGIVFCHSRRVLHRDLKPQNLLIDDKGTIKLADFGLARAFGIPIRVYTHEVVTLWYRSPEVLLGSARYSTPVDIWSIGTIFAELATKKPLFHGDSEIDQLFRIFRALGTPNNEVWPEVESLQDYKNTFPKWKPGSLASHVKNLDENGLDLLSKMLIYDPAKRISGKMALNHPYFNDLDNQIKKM
Test [4] addresses Cyclin-dependent kinase 4 (Homo sapiens, UniProt P11802). Kind of test: Inhibition of human CDK4.
Test [5] deals with Cyclin-dependent kinase 6 (Homo sapiens, UniProt Q00534). Kind of test: Inhibition of human CDK6.
Chain of Cyclin-dependent kinase 6 (Q00534 whole entry): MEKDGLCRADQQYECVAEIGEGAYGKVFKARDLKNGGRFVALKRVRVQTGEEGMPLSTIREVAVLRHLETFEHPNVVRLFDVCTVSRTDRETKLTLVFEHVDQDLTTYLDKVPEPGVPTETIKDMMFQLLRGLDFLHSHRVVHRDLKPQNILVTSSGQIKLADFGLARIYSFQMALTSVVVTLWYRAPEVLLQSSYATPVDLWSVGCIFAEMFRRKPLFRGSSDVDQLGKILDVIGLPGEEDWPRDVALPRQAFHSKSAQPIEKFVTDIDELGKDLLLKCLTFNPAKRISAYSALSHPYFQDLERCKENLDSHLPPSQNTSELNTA
Test [6] has as its target Proto-oncogene tyrosine-protein kinase Src (Homo sapiens, UniProt P12931). The experiment in a line: Inhibition of pp60 src (unknown origin).
Test [7] is described as follows: Inhibition of protein kinase A (unknown origin). Further details: species or system Homo sapiens.
In test [8] the target is Mitogen-activated protein kinase 3 (Homo sapiens, UniProt P27361). Kind of test: Inhibition of Erk-1 (unknown origin).
Chain of Mitogen-activated protein kinase 3 (P27361 whole entry): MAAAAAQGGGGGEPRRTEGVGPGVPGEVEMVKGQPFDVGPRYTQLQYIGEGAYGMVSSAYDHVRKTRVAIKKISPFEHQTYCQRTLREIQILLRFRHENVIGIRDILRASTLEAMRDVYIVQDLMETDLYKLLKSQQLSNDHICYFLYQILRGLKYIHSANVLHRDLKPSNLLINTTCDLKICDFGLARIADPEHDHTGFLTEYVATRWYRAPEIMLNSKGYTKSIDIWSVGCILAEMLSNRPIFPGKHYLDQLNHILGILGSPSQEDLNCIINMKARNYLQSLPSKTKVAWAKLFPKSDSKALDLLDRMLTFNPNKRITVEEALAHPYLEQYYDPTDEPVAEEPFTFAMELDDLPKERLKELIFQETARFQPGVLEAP
Test [9] is described as follows: Inhibition of CDK6/cyclin D (unknown origin). On the set-up: species or system Homo sapiens.
In test [10] the target is Cyclin-dependent kinase 2/cyclin E1 (Homo sapiens, UniProt P24941). The experiment in a line: Inhibition of human CDK2/cyclin E expressed in baculovirus expression system after 30 mins in presence of [gamma-33P]ATP by scintillation counting analysis.
The next test has as its system HT-29. Kind of test: Antiproliferative activity against human HT-29 cells assessed as reduction in [3H]-thymidine incorporation after 48 hrs by liquid scintillation assay. The test is classed as functional, cell-based.
The target in another test is CDK7/Cyclin H/MNAT1 (Homo sapiens, UniProt P50613). The experiment in a line: Inhibition of recombinant human full length C-terminal His6-tagged and N-terminal GST-tagged CDK7/cyclinH/MAT1 expressed in baculovirus Sf21 insect cells after 40 mins in presence of [gamma-32P]ATP by scintillation counting analysis.
Chain of CDK7/Cyclin H/MNAT1 (P51946 whole entry): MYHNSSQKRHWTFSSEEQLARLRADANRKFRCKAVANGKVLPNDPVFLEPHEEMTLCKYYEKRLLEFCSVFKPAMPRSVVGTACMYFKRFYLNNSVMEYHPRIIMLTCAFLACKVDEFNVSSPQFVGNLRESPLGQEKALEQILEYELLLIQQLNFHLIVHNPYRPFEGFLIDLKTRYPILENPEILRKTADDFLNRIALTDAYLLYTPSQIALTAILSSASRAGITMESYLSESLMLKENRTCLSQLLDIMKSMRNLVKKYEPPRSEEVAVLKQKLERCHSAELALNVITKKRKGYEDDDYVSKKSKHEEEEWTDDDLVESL
Chain of CDK7/Cyclin H/MNAT1 (P50613 whole entry): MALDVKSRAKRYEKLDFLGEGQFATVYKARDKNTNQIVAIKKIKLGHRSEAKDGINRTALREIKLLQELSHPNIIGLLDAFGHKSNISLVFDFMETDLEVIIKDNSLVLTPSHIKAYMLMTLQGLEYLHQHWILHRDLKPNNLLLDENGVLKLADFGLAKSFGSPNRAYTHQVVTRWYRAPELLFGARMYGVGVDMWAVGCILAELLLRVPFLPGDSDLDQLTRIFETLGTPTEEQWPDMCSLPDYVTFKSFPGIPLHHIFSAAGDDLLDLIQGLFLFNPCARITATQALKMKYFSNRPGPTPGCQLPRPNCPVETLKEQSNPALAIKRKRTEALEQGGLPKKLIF
Chain of CDK7/Cyclin H/MNAT1 (P51948 whole entry, further chain): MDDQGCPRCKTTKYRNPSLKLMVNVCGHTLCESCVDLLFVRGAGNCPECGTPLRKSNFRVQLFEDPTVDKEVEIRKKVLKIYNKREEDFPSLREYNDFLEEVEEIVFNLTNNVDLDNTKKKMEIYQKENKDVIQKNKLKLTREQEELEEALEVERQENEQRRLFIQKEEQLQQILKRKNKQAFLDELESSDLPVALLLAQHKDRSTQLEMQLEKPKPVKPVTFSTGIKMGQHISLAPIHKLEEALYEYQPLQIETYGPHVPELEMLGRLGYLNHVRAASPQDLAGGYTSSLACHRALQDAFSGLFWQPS
A further test addresses Protein kinase C (PKC). The experiment in a line: Inhibition of PKC in rat brain homogenate using FKKSFKL-NH2 as substrate preincubated for 10 mins followed by substrate addition and measured after 5 mins in presence of [gamma-32P]ATP by liquid scintillation counting analysis. The test is classed as tissue-based.

Chain of Cyclin-dependent kinase 4 (P11802 whole entry): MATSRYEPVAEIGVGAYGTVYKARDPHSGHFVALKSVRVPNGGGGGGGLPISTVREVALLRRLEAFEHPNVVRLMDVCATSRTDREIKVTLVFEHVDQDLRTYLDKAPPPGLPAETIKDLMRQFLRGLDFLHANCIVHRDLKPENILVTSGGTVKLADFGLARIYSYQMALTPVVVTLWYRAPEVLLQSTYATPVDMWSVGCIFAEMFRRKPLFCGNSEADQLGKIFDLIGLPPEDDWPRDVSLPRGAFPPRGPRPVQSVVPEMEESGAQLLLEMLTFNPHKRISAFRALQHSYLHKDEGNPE
Chain of Proto-oncogene tyrosine-protein kinase Src (P12931 2-536 limits assumed): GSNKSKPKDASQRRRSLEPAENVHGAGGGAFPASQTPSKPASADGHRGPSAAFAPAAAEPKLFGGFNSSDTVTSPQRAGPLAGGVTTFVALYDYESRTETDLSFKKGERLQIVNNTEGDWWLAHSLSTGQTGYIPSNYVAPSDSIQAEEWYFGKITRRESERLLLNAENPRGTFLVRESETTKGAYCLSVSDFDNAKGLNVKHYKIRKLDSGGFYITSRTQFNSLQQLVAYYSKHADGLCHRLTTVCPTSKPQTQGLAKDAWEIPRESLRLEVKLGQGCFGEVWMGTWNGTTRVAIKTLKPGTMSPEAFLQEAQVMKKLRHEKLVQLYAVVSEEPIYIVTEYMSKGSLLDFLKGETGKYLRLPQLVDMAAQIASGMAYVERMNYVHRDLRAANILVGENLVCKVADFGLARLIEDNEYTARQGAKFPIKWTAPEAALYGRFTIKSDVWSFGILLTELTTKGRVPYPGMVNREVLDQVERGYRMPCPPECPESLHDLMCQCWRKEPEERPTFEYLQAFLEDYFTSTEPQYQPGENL

As to `O=c1c(O)c(-c2ccc(O)c(O)c2)oc2cc(O)ccc12`, the inhibition in test [1] was found to be 85%.
Take `O=c1c(O)c(-c2ccc(O)c(O)c2)oc2cc(O)c(O)c(O)c12`: the ED50 in test [2] turned out to be 5.5 µM.
Turning to `CN1CC[C@@H](c2c(O)cc(O)c3c(=O)cc(-c4ccc(C(F)(F)F)cc4Cl)oc23)[C@@H]1CO` [VORUCICLIB], the IC50 in test [3], in [4] and in test [5] was less than 0.1 µM each time.
`CN1CC[C@H](c2c(O)cc(O)c3c(=O)cc(-c4ccccc4Cl)oc23)[C@H](O)C1` [ALVOCIDIB]: the IC50 in [6] is 34 µM; in test [7], 122 to 145 µM; in test [8] it was 16 µM; in [9], 0.06 µM.
In the case of `CN1CC[C@H](c2c(O)cc(O)c3c(=O)cc(-c4ccccc4Cl)oc23)[C@H]1CO`, the IC50 in test [10] was determined as 21 µM; in the test with HT-29, 17.9 µM.
For the compound `O=c1cc(-c2ccc(O)c(O)c2)oc2cc(O)cc(O)c12`, the inhibition in [1] amounted to 70%.
Consider `CN1CC[C@@H](c2c(O)cc(O)c3c(=O)cc(-c4ccc([N+](=O)[O-])cc4Cl)oc23)[C@@H]1CO`, for which the figures for the IC50 (in test [10]; with HT-29) were 1.7 µM and 1.2 µM, respectively.
For `COc1c(O)cc(O)c2c(=O)cc(-c3ccccc3)oc12` [WOGONIN], on CDK7/Cyclin H/MNAT1, the IC50 is 12.3 µM.
On to `O=c1c(O)c(-c2ccc(O)c(O)c2)oc2cc(O)cc(O)c12`, for which the inhibition in test [1] worked out at 64%.
As to `O=c1c(O)c(-c2cc(O)c(O)c(O)c2)oc2cc(O)cc(O)c12` [MYRICETIN], the IC50 on Protein kinase C (PKC) is 7.8 µM.
`CN1CC[C@@H](c2c(O)cc(O)c3c(=O)cc(-c4ccccc4Cl)oc23)[C@@H]1CO`: the IC50 was 2.8 µM in [10] and 0.58 µM in the test with HT-29.
